Experimental data taken from US20230220063A1, “IL-1BETA BINDING ANTIBODIES FOR USE IN TREATING CANCER” (NOVARTIS AG, priority 2017, published 2023).

Tested on: incident cancers in post-myocardial infarction patients with hsCRP ≥2 mg/L
Assay: CANTOS trial: incident cancers, cancer mortality, canakinumab vs placebo
Assay type: in vivo, human

canakinumab: high-affinity, fully human monoclonal antibody of the IgG1/k to interleukin-1β; INN number 8836
Central Nervous System, incidence rate (number) (300 mg SC q 3 months): 0.03(3) per 100 person years | Endocrine: Adrenal, incidence rate (number) (300 mg SC q 3 months): 0.01(1) per 100 person years | Endocrine: Thyroid, incidence rate (number) (300 mg SC q 3 months): 0.01(1) per 100 person years | Gastrointenstinal: Appendiceal, incidence rate (number) (300 mg SC q 3 months): 0.01(1) per 100 person years | Gastrointenstinal: Biliary, incidence rate (number) (300 mg SC q 3 months): 0 per 100 person years | Gastrointenstinal: Colorectal, incidence rate (number) (300 mg SC q 3 months): 0.21(18) per 100 person years | Gastrointenstinal: Esophageal, incidence rate (number) (300 mg SC q 3 months): 0.08(7) per 100 person years | Gastrointenstinal: Gastric, incidence rate (number) (300 mg SC q 3 months): 0.06(5) per 100 person years | Gastrointenstinal: Oral cavity/tongue, incidence rate (number) (300 mg SC q 3 months): 0.02(2) per 100 person years | Gastrointenstinal: Pancreatic, incidence rate (number) (300 mg SC q 3 months): 0.06(5) per 100 person years | Genitourinary: Bladder, incidence rate (number) (300 mg SC q 3 months): 0.13(11) per 100 person years | Genitourinary: Cervical, incidence rate (number) (300 mg SC q 3 months): 0 per 100 person years | Genitourinary: Endometrial/Uterine, incidence rate (number) (300 mg SC q 3 months): 0.03(3) per 100 person years | Genitourinary: Ovarian, incidence rate (number) (300 mg SC q 3 months): 0 per 100 person years | Genitourinary: Prostate, incidence rate (number) (300 mg SC q 3 months): 0.17(15) per 100 person years | Genitourinary: Testicular, incidence rate (number) (300 mg SC q 3 months): 0 per 100 person years | Hematopoetic: Leukemia, incidence rate (number) (300 mg SC q 3 months): 0.01(1) per 100 person years | Hematopoetic: Lymphoma, incidence rate (number) (300 mg SC q 3 months): 0.07(6) per 100 person years | Hematopoetic: Multiple myeloma, incidence rate (number) (300 mg SC q 3 months): 0.02(2) per 100 person years | Kidney, incidence rate (number) (300 mg SC q 3 months): 0.07(6) per 100 person years | Liver, incidence rate (number) (300 mg SC q 3 months): 0.03(3) per 100 person years | Lung Cancers: Adenocarcinoma or poorly differentiated large cell carcinoma or unspecified, incidence rate (number) (300 mg SC q 3 months): 0.12 per 100 person years | Lung Cancers: Pleural cancer, incidence rate (number) (300 mg SC q 3 months): 0 per 100 person years | Lung Cancers: Small cell lung cancer, incidence rate (number) (300 mg SC q 3 months): 0.01 (1) per 100 person years | Lung Cancers: Squamous cell lung carcinoma, incidence rate (number) (300 mg SC q 3 months): 0.03 (3) per 100 person years | Other cancer sites: Other, incidence rate (number) (300 mg SC q 3 months): 0.02(2) per 100 person years | Sarcoma / Bone, incidence rate (number) (300 mg SC q 3 months): 0.01(1) per 100 person years | Skin: Basal cell carcinoma, incidence rate (number) (300 mg SC q 3 months): 0.21(18) per 100 person years | Skin: Melanoma, incidence rate (number) (300 mg SC q 3 months): 0.06(5) per 100 person years | Skin: Other, incidence rate (number) (300 mg SC q 3 months): 0.02(2) per 100 person years | Skin: Squamous cell skin cancer, incidence rate (number) (300 mg SC q 3 months): 0.27(23) per 100 person years | Lung Cancers: Adenocarcinoma or poorly differentiated large cell carcinoma or unspecified, incidence rate (number) (300 mg SC q 3 months, listed as Canakinumab): 0.12 (10) per 100 person years | total cancer mortality (300 mg SC, vs placebo): fell by half | Breast, incidence rate (number) (All Doses): 0.06(16) per 100 person years | Central Nervous System, incidence rate (number) (All Doses): 0.04(10) per 100 person years | Endocrine: Adrenal, incidence rate (number) (All Doses): 0.01(2) per 100 person years | Endocrine: Thyroid, incidence rate (number) (All Doses): 0.02(4) per 100 person years | Gastrointenstinal: Appendiceal, incidence rate (number) (All Doses): 0.00(1) per 100 person years | Gastrointenstinal: Biliary, incidence rate (number) (All Doses): 0.02(5) per 100 person years | Gastrointenstinal: Colorectal, incidence rate (number) (All Doses): 0.21(54) per 100 person years | Gastrointenstinal: Esophageal, incidence rate (number) (All Doses): 0.06(16) per 100 person years | Gastrointenstinal: Gastric, incidence rate (number) (All Doses): 0.04(10) per 100 person years | Gastrointenstinal: Oral cavity/tongue, incidence rate (number) (All Doses): 0.03(8) per 100 person years | Gastrointenstinal: Pancreatic, incidence rate (number) (All Doses): 0.05(13) per 100 person years | Genitourinary: Bladder, incidence rate (number) (All Doses): 0.10(26) per 100 person years | Genitourinary: Cervical, incidence rate (number) (All Doses): 0.00(1) per 100 person years | Genitourinary: Endometrial/Uterine, incidence rate (number) (All Doses): 0.02(5) per 100 person years | Genitourinary: Ovarian, incidence rate (number) (All Doses): 0.00(1) per 100 person years | Genitourinary: Prostate, incidence rate (number) (All Doses): 0.17(44) per 100 person years | Genitourinary: Testicular, incidence rate (number) (All Doses): 0.00(1) per 100 person years | Hematopoetic: Leukemia, incidence rate (number) (All Doses): 0.02(4) per 100 person years | Hematopoetic: Lymphoma, incidence rate (number) (All Doses): 0.05(13) per 100 person years | Hematopoetic: Multiple myeloma, incidence rate (number) (All Doses): 0.01(2) per 100 person years | Kidney, incidence rate (number) (All Doses): 0.09(22) per 100 person years | Liver, incidence rate (number) (All Doses): 0.04(11) per 100 person years | Lung Cancers: Adenocarcinoma or poorly differentiated large cell carcinoma or unspecified, incidence rate (number) (All Doses): 0.23 (59) per 100 person years | Lung Cancers: Pleural cancer, incidence rate (number) (All Doses): 0 per 100 person years | Lung Cancers: Small cell lung cancer, incidence rate (number) (All Doses): 0.01 (3) per 100 person years | Lung Cancers: Squamous cell lung carcinoma, incidence rate (number) (All Doses): 0.02 (6) per 100 person years | Other cancer sites: Other, incidence rate (number) (All Doses): 0.05(13) per 100 person years | Sarcoma / Bone, incidence rate (number) (All Doses): 0.01(2) per 100 person years | Skin: Basal cell carcinoma, incidence rate (number) (All Doses): 0.26(65) per 100 person years | Skin: Melanoma, incidence rate (number) (All Doses): 0.06(16) per 100 person years | Skin: Other, incidence rate (number) (All Doses): 0.03(7) per 100 person years | Skin: Squamous cell skin cancer, incidence rate (number) (All Doses): 0.17(44) per 100 person years | share of all cancers that were lung cancers (among those assigned to canakinumab (placebo 26.0%)): 16% | share of cancer deaths that were lung cancers (among those assigned to canakinumab (placebo 47%)): 34%
